What all share (experiment): microscale thermophoresis
Common to all, as to type: binding
(In general: MST reads how a fluorescent partner responds to local heating, with and without ligand.)

In one test the target is T1, Hsp90α (Homo sapiens, UniProt P07900).
T1 construct: gene HSP90AA1; labelled with DyLight 488 for MST

The target in another test is T2, GPD2 (Homo sapiens, UniProt P43304).
T2 construct: labelled with DyLight 488 for MST; docking model 1x0v is not the assayed protein
T2 sequence (P43304 43-727): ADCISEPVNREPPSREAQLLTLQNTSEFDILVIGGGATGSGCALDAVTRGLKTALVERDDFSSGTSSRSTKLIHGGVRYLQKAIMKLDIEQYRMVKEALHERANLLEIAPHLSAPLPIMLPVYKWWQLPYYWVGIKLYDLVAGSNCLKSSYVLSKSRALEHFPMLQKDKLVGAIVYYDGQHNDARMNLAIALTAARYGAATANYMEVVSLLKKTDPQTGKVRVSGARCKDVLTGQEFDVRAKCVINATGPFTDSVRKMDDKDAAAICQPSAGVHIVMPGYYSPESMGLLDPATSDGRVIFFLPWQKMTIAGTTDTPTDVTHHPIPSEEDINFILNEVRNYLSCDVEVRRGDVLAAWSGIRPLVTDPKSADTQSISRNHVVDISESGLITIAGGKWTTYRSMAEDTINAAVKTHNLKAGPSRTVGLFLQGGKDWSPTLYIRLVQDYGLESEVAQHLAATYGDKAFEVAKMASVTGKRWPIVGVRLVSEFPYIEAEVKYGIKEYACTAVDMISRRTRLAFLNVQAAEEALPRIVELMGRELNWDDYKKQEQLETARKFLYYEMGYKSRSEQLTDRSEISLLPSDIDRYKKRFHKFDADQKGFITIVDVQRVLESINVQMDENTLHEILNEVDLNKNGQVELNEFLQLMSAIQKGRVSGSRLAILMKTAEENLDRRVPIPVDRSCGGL

The target in the next test is T3, GPI (Homo sapiens, UniProt P06744).
T3 construct: labelled with DyLight 488 for MST

The target in another test is T4, PGK2 (Homo sapiens, UniProt P07205).
T4 construct: labelled with DyLight 488 for MST; docking model 2paa is not the assayed protein
T4 sequence (P07205 2-417): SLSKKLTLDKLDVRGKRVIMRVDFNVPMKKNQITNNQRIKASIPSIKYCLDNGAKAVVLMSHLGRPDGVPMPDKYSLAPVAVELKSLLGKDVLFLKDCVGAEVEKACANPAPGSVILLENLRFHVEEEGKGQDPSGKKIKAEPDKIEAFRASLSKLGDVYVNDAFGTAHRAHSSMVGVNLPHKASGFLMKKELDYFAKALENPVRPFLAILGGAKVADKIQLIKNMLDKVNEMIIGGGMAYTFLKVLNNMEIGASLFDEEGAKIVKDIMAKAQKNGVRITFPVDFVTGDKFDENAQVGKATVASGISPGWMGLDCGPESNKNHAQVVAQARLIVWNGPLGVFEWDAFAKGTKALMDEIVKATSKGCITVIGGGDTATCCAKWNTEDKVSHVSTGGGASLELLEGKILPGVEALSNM

SMILES strings stand for the structures.

For 1 compound, Kd results are on record in article PMC11542786, “Isoscopoletin inhibits hepatocellular carcinoma cell proliferation via regulating glycolysis-related proteins” (PLOS ONE, 2024).

Turning to `COc1cc2oc(=O)ccc2cc1O` [Isoscopoletin], the Kd on Hsp90α was 52.2 mM; at GPD2, 13.4 mM; at GPI it was 1.35 mM; at PGK2, 3.22 mM.

What is called Kd is the constant that tells how readily two partners part at equilibrium. A lower Kd goes with higher affinity.
